These results are taken from article PMC8837113, “Drug Repurposing of the Unithiol: Inhibition of Metallo-β-Lactamases for the Treatment of Carbapenem-Resistant Gram-Negative Bacterial Infections” (International Journal of Molecular Sciences, 2022).

For test [1], the target named is T1, metallo-β-lactamase VIM-2 (Pseudomonas aeruginosa, UniProt Q9K2N0).
T1 construct: gene blaVIM-2; active mature VIM-2 in periplasmic fractions of P. aeruginosa strains B-730P/17 and B-2099/18
The test is described as follows: kinetic inhibition assay in periplasmic fractions (Figure S1); disk diffusion and MIC support. It counts as cell-based.

Test [2] has as its target T2, metallo-β-lactamase NDM-1 (Klebsiella pneumoniae, UniProt C7C422).
T2 construct: gene blaNDM-1; recombinant NDM-1, purified from the periplasmic fraction of E. coli BL21(DE3) (pET-NDM)
The experiment in a line: meropenem hydrolysis kinetics, Lineweaver–Burk (spectrophotometric, […] nm). It counts as biochemical.

T2 sequence (C7C422 29-270 limits assumed): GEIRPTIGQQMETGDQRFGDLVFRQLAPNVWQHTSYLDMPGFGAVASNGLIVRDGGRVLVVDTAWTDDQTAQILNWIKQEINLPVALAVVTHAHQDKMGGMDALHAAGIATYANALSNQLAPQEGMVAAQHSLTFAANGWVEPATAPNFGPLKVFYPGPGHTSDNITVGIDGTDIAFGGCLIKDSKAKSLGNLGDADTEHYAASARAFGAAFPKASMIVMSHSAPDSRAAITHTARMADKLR

On to `O=S(=O)(O)CC(S)CS` (centres unmarked) [compound 2, 2,3-dimercaptopropane-1-sulfonate], for which the “kinetic inhibition assay in periplasmic fractions (Figure S1); disk diffusion an” value in test [1] is on record as “A noticeable dose-dependent inhibitory effect of unithiol (Figure S1) was observed for the two strains studied”. Moreover, the affinity in test [2] corresponds to a Ki of 16.7 ± 1.2 µM.

As usually defined, the Ki is the dissociation constant of the complex between target and ligand, obtained from inhibition or displacement. Higher therefore signals a looser hold on the target.
